In patent publication US5422341A, “Motilin-like polypeptides with gastrointestinal motor stimulating activity” (Ohmeda Pharmaceutical Products Division Inc., priority 1993, dated 1995):
Counter-ions that a name gives are not always drawn. Square brackets hold non-standard residues; d marks the D form. Peptide text beside a SMILES is read from it. * marks the point of attachment. X1 = C[N+](C)(C)[C@@H](Cc1ccccc1)C(=O)*; NMe2Phe = CN(C)[C@@H](Cc1ccccc1)C(=O)*; NMeF = CN[C@@H](Cc1ccccc1)C(=O)O; Cha = N[C@@H](CC1CCCCC1)C(=O)O

Columns and labels:
motilin receptor = biological target: T1, motilin receptor (Oryctolagus cuniculus, UniProt G1T803); test: Determination of motilin receptor binding affinity (displacement of [125I-Tyr7, Nle13]motilin(porcine)); design: species or system rabbit; conditions: negative logarithm of the concentration displacing 50% of [125I-Tyr7, Nle13]motilin(porcine) from rabbit antral smooth muscle membranes; read-out: pIC50 (converted)
T1 construct: from tissue; host or cells: rabbit antral smooth muscle membranes
T1 sequence (G1T803 1-400): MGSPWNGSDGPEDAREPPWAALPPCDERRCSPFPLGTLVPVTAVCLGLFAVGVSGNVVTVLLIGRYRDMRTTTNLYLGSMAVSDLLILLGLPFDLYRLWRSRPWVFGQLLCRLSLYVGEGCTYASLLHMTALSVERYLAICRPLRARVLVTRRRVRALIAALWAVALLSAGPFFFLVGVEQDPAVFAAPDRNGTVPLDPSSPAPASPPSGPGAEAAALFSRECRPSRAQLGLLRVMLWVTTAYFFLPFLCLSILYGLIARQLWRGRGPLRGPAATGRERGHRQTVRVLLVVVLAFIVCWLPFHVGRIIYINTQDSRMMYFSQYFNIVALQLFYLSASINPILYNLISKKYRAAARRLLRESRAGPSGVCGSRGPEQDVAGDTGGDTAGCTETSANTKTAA
Method: The motilin receptor binding affinity of the peptides of this invention was determined by using the general procedure of Bormans, Peelers and Vantrappen, Regul. […] Fitting was performed using the iterative least-squares procedure of the SAS-software package (SAS Institute, Inc., Cary, N.C., USA).

[1] = biological target: segments of rabbit duodenum (Oryctolagus cuniculus, UniProt G1T803); test: Rabbit duodenal smooth muscle strip tissue bath assay; assay type: cell-based; conditions: negative logarithm of the dose giving 50% of the maximal response to motilin; isotonic contraction of rabbit duodenum segments
Chain of segments of rabbit duodenum (G1T803 1-400): as above
Method: The contractile response of segments of rabbit duodenum was determined isotonically in the tissue bath according to the procedure of Depoortere et at., J. Gastrointestinal Motility, 1, 150-159 (1989). The experimental protocol consisted of an equilibration period of 1 hour; a challenge with 10^-4 M acetylcholine followed by a wash-out period; a cumulative dose-response curve of a compound with, at the end, the addition of 10^-7 M motilin; and finally 10^-4 M acetylcholine. If the final response to 10^-4 M acetylcholine differed by more than 5% from the initial response, the results were discarded. The compounds were tested in the concentration range 10^-11 to 10^-4 M. The point corresponding to 50% of the maximal response to motilin (Emax) was determined by fitting the equation E=Emax (1+EC50 /[L]) through the data points. […] The dose giving 50% of the response is expressed using its negative logarithm (pEC50).

[2] = system: canine gastrointestinal tract; test: Contractile activity in the canine gastrointestinal tract; assay type: in vivo, dog; conditions: anesthetized dogs, intra-arterial injection to a duodenal segment; amount giving 50% of the calibration response to field stimulation
Method: Mongrel dogs of either sex were anesthetized with sodium pentobarbital 65 mg/kg intravenously. A mid-line incision was made in the abdomen. A duodenal segment was located, the terminal arteries to that segment were identified, and the closest possible artery of the appropriate size was rubbed clean of fat and fascia. A needle of suitable diameter was bent at an angle and the tip inserted in the cleaned artery. The needle was held in position in the artery for approximately 30 seconds until vascular spasm has relaxed and then a catheter assembly was inserted into the artery and tied into position with 000 silk sutures. The fine polyethylene catheter (10-15 cm) was cut to a point at one end with a needle inserted at the other end. The hub of the needle was fitted with a 3-way stopcock and the catheter assembly was filled with heparinized Krebs Ringer bicarbonate containing 10 mM glucose. A bolus of Krebs (free of air) was injected into the arterial catheter and the distribution of blanching in the segment noted. If the area was too large, collateral arteries may be tied off as long as circulation to the area was maintained. A Bass type strain gauge was then sutured to the serosa, and oriented so that circular muscle contractions can be recorded on a Beckman R611 dynograph. Silver wire electrodes were inserted subserosally on either side of the strain gauge and were connected through stimulus isolation units to a Grass S88 electrical stimulator. Electrical field stimulation was applied at 40 V 0.5 ms and 5 pps and the amplitude of the pen recorder was set to contain the contractile response.
All peptides to be injected were dissolved in Krebs and serial dilutions were prepared so that for any concentration the maximum volume to be injected was 1 ml. All solutions except stock Krebs were held on ice for the day of the experiment and discarded at the end of the day. For determination of a dose-response curve, the site was first injected with a bolus of approximately 1 ml of heparinized Krebs to provide a flush control. Peptide agonists (in volumes of 1 ml flushed with 1 ml of Krebs) were injected in logarithmic increments until a response which was maximal in amplitude was obtained. The injection site was then flushed with Krebs containing 0.1% BSA to displace any peptide remaining in the arterial line. For peptides acting at the motilin receptor, care was taken not to inject supramaximal doses as these will induce tachyphylaxis. Therefore, as responses become apparent, 0.3 or 0.5 log unit increments were used. A site was used for a dose-response determination only every 1/2 to 1 hour.
The amplitude of the calibration response to field stimulation in each site was measured and used as 100% for that site. The amplitude of the response to the agonist at each dose was determined, calculated as a % of the calibration response and plotted against the concentration. The ED50 of the response represents the amount of agonist required to produce a response which was 50% of the calibration response.

Row | Compound | IC50 (motilin receptor) | pEC50 [1] | ED50 [2]
1 | CC[C@H](C)[C@H](NC(=O)[C@H](C)NC(=O)[C@@H](NC(=O)[C@H](Cc1ccccc1)NC)C(C)C)C(=O)N[C@@H](Cc1ccccc1)C(=O)N[C@H](C(=O)N[C@@H](Cc1ccc(O)cc1)C(=O)NCC(=O)N[C@@H](CCC(=O)O)C(=O)N[C@@H](CC(C)C)C(=O)N[C@@H](CCC(N)=O)C(=O)N[C@H](CCCNC(=N)N)C(=O)N[C@@H](CC(C)C)C(=O)N[C@@H](CCCCN)C(N)=O)[C@@H](C)O (H-[NMeF]VAIFTYGELQ[dR]LK-NH2) | 0.631 nM | 7.72 | 0.06 nmol
2 | CC[C@H](C)[C@H](NC(=O)[C@H](C)NC(=O)[C@@H](NC(=O)[C@H](Cc1ccccc1)N(C)C)C(C)C)C(=O)N[C@@H](Cc1ccccc1)C(=O)N[C@H](C(=O)N[C@@H](Cc1ccc(O)cc1)C(=O)NCC(=O)N[C@@H](CCC(=O)O)C(=O)N[C@@H](CC(C)C)C(=O)N[C@@H](C)C(=O)N[C@H](CCCNC(=N)N)C(=O)N[C@@H](CC(C)C)C(=O)N[C@@H](CCCCN)C(N)=O)[C@@H](C)O (NMe2Phe-VAIFTYGELA[dR]LK-NH2) | 0.708 nM | 7.74 | 0.003 nmol
3 | CC[C@H](C)[C@H](NC(=O)[C@@H]1CCCN1C(=O)[C@@H](NC(=O)[C@H](Cc1ccccc1)NC)C(C)C)C(=O)N[C@@H](Cc1ccccc1)C(=O)N[C@H](C(=O)N[C@@H](Cc1ccc(O)cc1)C(=O)NCC(=O)N[C@@H](CCC(=O)O)C(=O)N[C@@H](CC(C)C)C(=O)N[C@@H](C)C(=O)N[C@H](CCCNC(=N)N)C(=O)N[C@@H](CC(C)C)C(=O)N[C@@H](CCC(N)=O)C(N)=O)[C@@H](C)O (H-[NMeF]VPIFTYGELA[dR]LQ-NH2) | – | – | 0.0018 nmol
4 | CC[C@H](C)[C@H](NC(=O)[C@H](C)NC(=O)[C@@H](NC(=O)[C@H](Cc1ccccc1)NC)C(C)C)C(=O)N[C@@H](Cc1ccccc1)C(=O)N[C@H](C(=O)N[C@@H](Cc1ccc(O)cc1)C(=O)NCC(=O)N[C@@H](CCC(=O)O)C(=O)N[C@@H](CC(C)C)C(=O)N[C@@H](CCC(N)=O)C(=O)N[C@H](CCCNC(=N)N)C(=O)N[C@@H](CC(C)C)C(=O)N[C@@H](CCC(N)=O)C(N)=O)[C@@H](C)O (H-[NMeF]VAIFTYGELQ[dR]LQ-NH2) | – | – | 0.024 nmol
5 | CC[C@H](C)[C@H](NC(=O)[C@@H]1CCCN1C(=O)[C@@H](NC(=O)[C@H](Cc1ccccc1)NC)C(C)C)C(=O)N[C@@H](Cc1ccccc1)C(=O)N[C@H](C(=O)N[C@@H](Cc1ccc(O)cc1)C(=O)NCC(=O)N[C@@H](CCC(=O)O)C(=O)N[C@@H](CC(C)C)C(=O)N[C@@H](CCC(N)=O)C(=O)N[C@H](CCCNC(=N)N)C(=O)N[C@@H](CC(C)C)C(=O)N[C@H](CCC(N)=O)C(N)=O)[C@@H](C)O (H-[NMeF]VPIFTYGELQ[dR]L[dQ]-NH2) | – | – | 0.0004 nmol
6 | CC[C@H](C)[C@H](NC(=O)[C@H](C)NC(=O)[C@@H](NC(=O)[C@H](Cc1ccccc1)NC)C(C)C)C(=O)N[C@@H](Cc1ccccc1)C(=O)N[C@H](C(=O)N[C@@H](Cc1ccc(O)cc1)C(=O)NCC(=O)N[C@@H](CCC(=O)O)C(=O)N[C@@H](CC(C)C)C(=O)N[C@@H](C)C(=O)N[C@H](CCCNC(=N)N)C(=O)N[C@@H](CC(C)C)C(=O)N[C@H](CCC(N)=O)C(N)=O)[C@@H](C)O (H-[NMeF]VAIFTYGELA[dR]L[dQ]-NH2) | 0.724 nM | 7.32 | –
7 | CC[C@H](C)[C@H](NC(=O)[C@H](C)NC(=O)[C@@H](NC(=O)[C@H](Cc1ccccc1)[N+](C)(C)C)C(C)C)C(=O)N[C@@H](Cc1ccccc1)C(=O)N[C@H](C(=O)N[C@@H](Cc1ccc(O)cc1)C(=O)NCC(=O)N[C@@H](CCC(=O)O)C(=O)N[C@@H](CC(C)C)C(=O)N[C@@H](C)C(=O)N[C@H](CCCNC(=N)N)C(=O)N[C@@H](CC(C)C)C(=O)N[C@H](CCC(N)=O)C(N)=O)[C@@H](C)O (X1-VAIFTYGELA[dR]L[dQ]-NH2) | 1.45 nM | 7.22 | –

Now from value to compound, other results behind:

Row | IC50 (motilin receptor) | pEC50 [1] | Compound | ED50 [2]
8 | 1.66 nM | 7.63 | CC[C@H](C)[C@H](NC(=O)[C@@H]1CCCN1C(=O)[C@@H](NC(=O)[C@@H](N)Cc1ccccc1)C(C)C)C(=O)N[C@@H](Cc1ccccc1)C(=O)N[C@H](C(=O)N[C@@H](Cc1ccc(O)cc1)C(=O)NCC(=O)N[C@@H](CCC(=O)O)C(=O)N[C@@H](CC(C)C)C(=O)N[C@@H](C)C(=O)N[C@H](CCCNC(=N)N)C(=O)N[C@@H](CC(C)C)C(=O)N[C@@H](CCC(N)=O)C(=O)O)[C@@H](C)O [[Ala^11, D-Arg^12, Leu^13]pMOT(1-14)] (H-FVPIFTYGELA[dR]LQ-OH) | –
9 | 0.977 nM | 7.74 | CC[C@H](C)[C@H](NC(=O)[C@@H]1CCCN1C(=O)[C@@H](NC(=O)[C@@H](N)Cc1ccccc1)C(C)C)C(=O)N[C@@H](Cc1ccccc1)C(=O)N[C@H](C(=O)N[C@@H](Cc1ccc(O)cc1)C(=O)NCC(=O)N[C@@H](CCC(=O)O)C(=O)N[C@@H](CC(C)C)C(=O)N[C@@H](CCC(N)=O)C(=O)N[C@H](CCCNC(=N)N)C(=O)N[C@@H](CC(C)C)C(=O)N[C@@H](CCC(N)=O)C(=O)O)[C@@H](C)O [[D-Arg^13, Leu^13]pMOT(1-14), [12-D-Arginine, 13-leucine]motilin-(1-14)-peptide (Porcine) Bis-trifiuoroacetate Salt] (H-FVPIFTYGELQ[dR]LQ-OH) | –
10 | 8.51 nM | 6.92 | CC[C@H](C)[C@H](NC(=O)[C@@H]1CCCN1C(=O)[C@@H](NC(=O)[C@@H](N)Cc1ccccc1)C(C)C)C(=O)N[C@@H](Cc1ccccc1)C(=O)N[C@H](C(=O)N[C@@H](Cc1ccccc1)C(=O)NCC(=O)N[C@@H](CCC(=O)O)C(=O)N[C@@H](CC(C)C)C(=O)N[C@@H](CCC(N)=O)C(=O)N[C@H](CCCNC(=N)N)C(=O)N[C@@H](CC(C)C)C(=O)N[C@@H](CCC(N)=O)C(=O)O)[C@@H](C)O [[Phe^7, D-Arg^12, Leu^13]pMOT(1-14)] (H-FVPIFTFGELQ[dR]LQ-OH) | –
11 | 2.45 nM | 7.25 | CC[C@H](C)[C@H](NC(=O)[C@@H]1CCCN1C(=O)[C@@H](NC(=O)[C@H](Cc1ccccc1)[N+](C)(C)C)C(C)C)C(=O)N[C@@H](Cc1ccccc1)C(=O)N[C@H](C(=O)N[C@@H](Cc1ccc(O)cc1)C(=O)NCC(=O)N[C@@H](CCC(=O)O)C(=O)N[C@@H](CC(C)C)C(=O)N[C@@H](C)C(=O)N[C@H](CCCNC(=N)N)C(=O)N[C@@H](CC(C)C)C(=O)N[C@H](CCC(N)=O)C(N)=O)[C@@H](C)O (X1-VPIFTYGELA[dR]L[dQ]-NH2) | –
12 | 1.78 nM | 7.60 | CC[C@H](C)[C@H](NC(=O)[C@@H]1CCCN1C(=O)[C@@H](NC(=O)[C@@H](N)CC1CCCCC1)C(C)C)C(=O)N[C@@H](Cc1ccccc1)C(=O)N[C@H](C(=O)N[C@@H](Cc1ccc(O)cc1)C(=O)NCC(=O)N[C@@H](CCC(=O)O)C(=O)N[C@@H](CC(C)C)C(=O)N[C@@H](CCC(N)=O)C(=O)N[C@H](CCCNC(=N)N)C(=O)N[C@@H](CC(C)C)C(=O)N[C@@H](CCC(N)=O)C(=O)O)[C@@H](C)O [[Cha^1, D-Arg^12, Leu^13]pMOT(1-14)] (H-[Cha]VPIFTYGELQ[dR]LQ-OH) | –
